This note sets out measurements from EP2204398A1, “CA[…] DERIVATIVE AND USES OF THE SAME” (NanoCarrier Co., Ltd., priority 2008, dated 2009).

Some results are limits rather than exact numbers.

Series [1] in a line: Test for blood kinetics in rat (CPT concentration in blood plasma by HPLC). It is filed as in vivo, male Wister rat. Particulars: tail vein, camptothecin in DMSO, administered in the same manner, n=1. On the procedure:
In a sample vial, 50 mg of the complex obtained in Example 1 which was weighed precisely was placed, and 1 mL of purified water was added thereto, followed by suspending the polymer. The resulting suspension was stirred for one day and night, and sonicated using Biodisruptor (Nihonseiki Kaisha Ltd., High Power Unit) with ice cooling for 10 minutes, followed by filtration through a 0.22 µm filter (Millipore, MILLEX (registered trademark) GP PES) and recovery of the resulting filtrate. […]
To 30 µL of the collected rat blood plasma, 100 µL of acetonitrile and 20 µL of 10 mM HCl were sequentially added, and the resulting mixture was stirred. […] The filtrate was filled in an HPLC sample vial, and the concentration of free CPT in the blood plasma was determined.
The HPLC conditions were as followed. Unless otherwise specified, the HPLC analysis of CPT was carried out under the same conditions. • System: Waters Alliance System • Column: Tosoh TSK-gel ODS-80TM (Φ4.6 × 150 mm) (40°C) • Mobile phase: 25 mM ammonium formate buffer (pH 3.0)/acetonitrile=70/30 • Flow rate: 1 mL/min. • Detection: fluorescence (Ex: 370 nm, Em: 420 nm) Injection volume: 20 µL

Series [2] concerns Human Prostate Cancer PC-3 Cells. Briefly: Test for pharmacological effect using human prostate cancer PC-3 cells - 1 (tumor volume). Particulars: CPT DMSO solution 7 mg/kg, tail vein, 3 times at intervals of 4 days, n=7. It is filed as in vivo, male nude mice. On the procedure: (§1) PC-3 cells (purchased from ATCC via Summit Pharmaceuticals International Corporation; which provision is also applied hereinafter) were cultured using RPMI1640 + 10% FBS medium under 5% CO2 at 37°C to allow their growth to attain the cell number required for transplantation. The cells were suspended in physiological saline and subcutaneously inoculated to the back of male nude mice [Blab nu/nu, 8 weeks old, Charles River Laboratories Japan] such that the dose of 3 × 10^6 cells/100 µL per mouse was attained. Thereafter, the nude mice were kept for 7 days, and when the tumor volume reached 83.3 t 6.2 mm^3 (average ± SE, wherein SE indicates standard error; which provision is also applied hereinafter), administration of drugs were started. A total of 3 times of administration through the tail vein at intervals of 4 days were scheduled, and changes in the tumor volume and body weight with time were measured for 3 groups (n=7), that is, (1) control (untreated); (2) the CPT DMSO solution 7 mg/kg; and (3) PEG-pAsp-CPT 3 mg/kg (the dose is based on the amount of camptothecin (mg/kg/injection)). The major diameter (a mm) and the minor diameter (b mm) of each tumor were measured using an electronic caliper (Mitutoyo Corporation), and the tumor volume was calculated according to the following equation.
(§2) Tumor volume (mm^3) = a × b^2 /2 [formula] […]

A short description of series [3]: Changes in body weight in PC-3 tumor-bearing animals, test 1. The class given is in vivo, male nude mice. Particulars: CPT DMSO solution 7 mg/kg, tail vein, 3 times at intervals of 4 days, n=7. On the procedure:
as §1, §2

With `CC[C@@]1(O)C(=O)OCc2c1cc1n(c2=O)Cc2cc3ccccc3nc2-1` [CPT solution, camptothecin], the blood concentration entry in series [1] is given as “decreased rapidly”. For the same compound, the “tumor growth inhibition effect in comparison with the control group” value in series [2] was “hardly observed”. Further, the “body weight decrease at maximum” value in series [3] is no less than 10%.
